Measured values taken from patent EP0915894B1, “NUCLEOTIDE ANALOGS” (GILEAD SCIENCES, INC., priority 1996, dated 1998).

Key:
[1] = test system: HIV-1(IIIB); experiment: Antiviral activity against HIV-1(IIIB) in MT-2 cells (tissue culture); assay type: cell-based; conditions: for SI - Selectivity Index(CC50/IC50): CC50/IC50, HIV-1, MT-2 cells; for IC50: Human immunodeficiency virus 1, MT2, HIV-1(IIIB), MT-2 cells, read-out: IC50 (50% inhibitory concentration)
Source text: (§1) PMPA (9-[(R)-2-(phosphonomethoxy)propyl]adenine) and PMPA carbonates were examined to determine their activity against HIV-1.

[2] = test system: MT-2 cells; experiment: Cytotoxicity in MT-2 cells (concentration to kill 50% of the cells); assay type: cell-based
Source text: as §1

[3] = Chemical (solution) stability of PMPA carbonates; assay type: physicochemical; conditions: compared with preferred t 1/2 at pH 7.4 (> 2-12 hours) and at pH 2.0 (> 1, 10 or 100 hours)
Experimental: The solution stability of PMPA carbonates was studied at pH 7.4 at 37°C in 10 mM buffer (NaH2PO4 and Na2HPO4) with the total ionic strength adjusted to 0.15 M with KCl. The assays were performed by adding 200 µL of a PMPA carbonate stock solution (about 1 mg/mL in DMSO) to 10 mL of pre-equilibrated buffer at 37°C. Samples were removed at specific times points and analyzed by HPLC. The chemical t 1/2 is expressed in terms of the number of hours required to hydrolyze 50% of the carbonate at the specified pH.

[4] = physchem
Source text: as §1

[5] = Cytotoxicity in MT-2 cells (concentration to kill 50% of the cells); assay type: cell-based; conditions: human
Source text: as §1

SMILES | SI - Selectivity Index(CC50/IC50) [1] | IC50 [1] [µM] | CC50 [2] [µM] | t 1/2 (chemical stability) [3] | increased potency / activity compared to PMPA ([1]; anti-HIV-1 activity relative to PMPA) [fold] | logP [4] | CC50 [5] [µM]
CCOC(=O)OCOP(=O)(CO[C@H](C)Cn1cnc2c(N)ncnc21)OCOC(=O)OCC [5a] | 20000 | 0.002 | 40 |  |  |  | 
CC(C)COC(=O)OCOP(=O)(CO[C@H](C)Cn1cnc2c(N)ncnc21)OCOC(=O)OCC(C)C [5c] | 30000 | < 0.001 | 30 |  |  |  | 
C[C@H](Cn1cnc2c(N)ncnc21)OCP(=O)(OCOC(=O)OC(C)(C)C)OCOC(=O)OC(C)(C)C [5d] | 50 | 0.2 | 10 | less stable than these parameters | 2.5 |  | 
C[C@H](Cn1cnc2c(N)ncnc21)OCP(=O)(OCOC(=O)OCC(C)(C)C)OCOC(=O)OCC(C)(C)C [5e] | 3000 | < 0.001 | 3 |  |  |  | 
CC(C)OC(=O)OCOP(=O)(CO[C@H](C)Cn1cnc2c(N)ncnc21)OCOC(=O)OC(C)C [5f] | 16600 | 0.003 | 50 |  |  |  | 
CCC(CC)OC(=O)OCOP(=O)(CO[C@H](C)Cn1cnc2c(N)ncnc21)OCOC(=O)OC(CC)CC [5g] | 40000 | < 0.001 | 40 |  |  |  | 
C[C@H](Cn1cnc2c(N)ncnc21)OCP(=O)(O)O [compound 2, 9-[(R)-2-(phosphonomethoxy)propyl]adenine, reference compound] | 500 | 0.5 |  |  |  | -2.5 | 250
